What was measured:
[1] = test system: human breast cancer cell MCF-7; test: Cytotoxicity experiment (trypan blue dead cell count, 3 days incubation); assay type: cell-based; conditions: for EC50: concentration of 50% of dead cells, 3 days incubation
Protocol: (§1) Cytotoxicity experiments were carried out by using human prostate cancer cell PC-3 (Invest. Urology 17: 16, (1979)), human lung cancer cell A-549 (J. Nat. Cancer Inst. 51: 1417, (1973)) and human breast cancer cell MCF-7 (cr. Table 1). Cells used in the experiments were obtained from Laboratory Products Dept. of Dainippon Pharmaceuticals Inc. (now Dainippon Sumitomo Pharma Co., Ltd.). • (1) In 3 cm plastic petri dish, 5×10^6 of the above human origin cancer cell was incubated at 37° C. under 5% CO2 gas on an incubation medium wherein 10% fetal bovine serum (FBS) was added to a basal medium Dulbecco's modified eagle medium (DMEM). • (2) It was confirmed 1 day after the incubation that the cells were adhered to the petri dish. All incubation media were discarded, and to the cells were added fresh media (1 ml) to give reaction media. Thereto was added a solution of a test compound in DMSO (2 μl), and the mixture was incubated for 3 days under the same conditions as in the above (1). • (3) 3 days after the incubation, all cells were collected with a scrapper, and the mixture was softly stirred. Then, an aliquot (0.1 ml) was taken into a tube, and thereto was added 0.25% trypan blue solution (0.1 ml), and the mixture was stirred and then allowed to stand for 10 minutes. Both of dead and live cells suspended in the mixture were observed using a white cell counter under light microscope to calculate cytotoxicity effects to the cancer cells. • (4) The number of the observed dead cells was calculated on the basis of the total number of cells observed as 100% using a white cell counter. Each bioactivity evaluation of each compound was represented by EC50 value (μM), which refers to a concentration of 50% of dead cells (cf. Table 1).

[2] = test system: human lung cancer cell A-549; test: as above; assay type: cell-based; conditions: for EC50: concentration of 50% of dead cells, 3 days incubation
Protocol: as §1

[3] = test system: human prostate cancer cell PC-3; test: as above; assay type: cell-based; conditions: for EC50: concentration of 50% of dead cells, 3 days incubation
Protocol: as §1

[4] = test system: Epstein-Barr virus early antigen (EBV-EA); test: Inhibitory effect of TPA-induced EBV-EA activation in Raji cells; assay type: cell-based, human; conditions: for EBV-EA-positive cell: Raji cells, 2 days
Protocol: (§2) Additionally, cancer-preventing effects about Epstein-Barr virus early antigen (EBV-EA) using Raji cell, which was available from George Klein, Karolinska Institute, Sweden, were studied (cf. Table 2). • (1) To a reaction culture (1 ml) in a 15 ml plastic tube were added 1×10^6 of lymphoma Raji cells of human origin, and the mixture was incubated for 2 days at 37° C. under 5% CO2 gas. The reaction culture was a solution wherein butyric acid was added to RPMI-1640 (Roswell Park Memorial Institute) medium containing 8% FBS in a concentration of 4 mM. In case of positive controls, to the reaction culture was added 12-O-tetradecanoylphorbol-13-acetate (TPA) (20 ng, 32 pmol). • (2) Analysis was carried out by adding test compounds to the reaction culture in the above (1) with TPA in 1000, 500, 100 and 10 times higher concentration by mole (32, 16, 3.2 and 0.32 nmol) to TPA and incubating in a similar manner to the above. • (3) 2 days after incubation, a reaction tube was centrifuged at 1000 rpm for 10 minutes, and supernatants were discarded to collect reaction cells at the bottom of the tube, and thereto was added a phosphate buffered saline (0.1 ml) and the mixture was mixed well. To a glass slide for pathological pieces was added the mixture (5 μl), and then the mixture was air-dried to dryness. • (4) An antigen-antibody reaction was carried out at 37° C. in wet process by adding a diluted serum (1 μl) of patient with epipharynx carcinoma to the dried mixture. 45 minutes after the reaction, the resultant was washed with neutral phosphate buffer three times and then air-dried in a similar manner to the above. Then, thereto was added human blood gamma globulin antibody (1 μl), wherein a fluorescent substance was bound, to carry out an antigen-antibody reaction. 45 minutes after the reaction, the mixture was washed with neutral phosphate buffer to give a test sample. • (5) The test sample on a glass slide was observed under fluorescent light microscope. Both of dead and live cells were calculated, and the survival ratio in percentage is shown as a cancer-preventing activity, and the data of each sample were compared (cf. Table 2).

[5] = test system: Raji cell; test: Survival of Raji cells in the EBV-EA activation test; assay type: cell-based, human; conditions: 2 days
Protocol: as §2

[6] = compound concentration 10 (molar ratio/32 pmol TPA)
[7] = compound concentration 100 (molar ratio/32 pmol TPA)
[8] = compound concentration 500 (molar ratio/32 pmol TPA)
[9] = compound concentration 1000 (molar ratio/32 pmol TPA)

| Structure (SMILES) | EC50 ([1]; Homo sapiens, MCF7, 72 h) | EC50 ([2]; Homo sapiens, A549, 72 h) | EC50 ([3]; Homo sapiens, 72 h) | EBV-EA-positive cell [4, 6] | EBV-EA-positive cell [4, 7] | EBV-EA-positive cell [4, 8] | EBV-EA-positive cell [4, 9] | % survival (value in parentheses) [5, 8] | % survival (value in parentheses) [5, 9] | EC50 [1] | EC50 [2] | EC50 [3] | cytotoxicity compared with mitomycin ([1]; MCF-7, statement in words) | cytotoxicity compared with mitomycin ([2]; A-549, statement in words) | cytotoxicity compared with mitomycin ([3]; PC-3, statement in words) | inhibition of EBV-EA expression ([4]; statement in words) |
| --- | --- | --- | --- | --- | --- | --- | --- | --- | --- | --- | --- | --- | --- | --- | --- | --- |
| CC(O)c1cc2c(o1)C(=O)c1cccc(O)c1C2=O (racemic) [Racemate NQ801, 2-(1-hydroxyethyl)-5-hydroxynaphtho[2,3-b]furan-4,9-dione] | 8500 nM | 3240 nM | 560 nM | 52.9% | 20.7% | 6.2% | 0% | (70) % | 60% | – | – | – | – | – | – | – |
| CO[C@@]12[C@H](COC(N)=O)C3=C(C(=O)C(C)=C(N)C3=O)N1C[C@@H]1N[C@@H]12 [Mitomycin] | 960 nM | 430 nM | 140 nM | – | – | – | – | – | – | – | – | – | – | – | – | – |
| C[C@@H](O)c1cc2c(o1)C(=O)c1cccc(O)c1C2=O [(R)-NQ801] | – | – | – | 59.4% | 24.7% | 9.7% | 0% | – | 70% | 9300 nM | 3000 nM | 930 nM | – | – | – | – |
| CC1(C)CCC2=C(O1)c1ccccc1C(=O)C2=O [β-Lapachone, 3,4-dihydro-2,2-dimethyl-2H-naphtho(1,2-b)pyrane-5,6-dione] | – | – | – | 73.1% | 50.4% | 21.7% | 4.7% | – | 50% | – | – | – | – | – | – | – |
| C[C@H](O)c1cc2c(o1)C(=O)c1cccc(O)c1C2=O [(S)-NQ801, (S)-2-(1-hydroxyethyl)-5-hydroxynaphtho[2,3-b]-furan-4,9-dione] | 3500 nM | 960 nM | 140 nM | 50% | 16.9% | 4.4% | 0% | (60) % | 60% | – | – | – | same cytotoxicity as mitomycin | same cytotoxicity as mitomycin | same cytotoxicity as mitomycin | inhibits EBV-EA expression |
